Experimental findings from US20160101076A1, “Use of Sumoylation Inhibitors for Treating Cancer” (priority 2013, published 2016) are described below.

Each structure is given as a SMILES string.

One assay relates to sKD-C cells. The assay can be described thus: Gene/protein expression and CD44+/CD24-/low FACS in sKD-C cells treated with sumoylation inhibitors. The format is cell-based, human. The following applies: for CD44+/CD24-/low population by FACS analysis / CD44 expression by Western blot: s-KD-C cells, FIG. 6A; for ability to repress CD44 expression with knockdown of TFAP2A: TFAP2A siRNA, Western blot FIG. 6B. Here is the method:
The human breast cancer cell lines (MCF-7, SKBR-3, BT-20, BT-549, MCF-10A) were obtained from American Type Culture Collection. sKD-C cells were subcloned from parental MCF-7 cells with stable knockdown of TFAP2C as described (Cyr et al., 2014). ER<-positive tumors and the basal cancer tumor were obtained from surgical resection specimens. Cell suspensions were prepared with gentle collagenase/hyaluronidase (Stemcells) (Ponti et al., 2005). A new cell line was established from the basal tumor cells, called IOWA-1T (manuscript in preparation).
Total RNA was isolated and analyzed as previously described. Expression values were normalized to the mean of 18S rRNA 4319413E-0803037 (Applied Biosystems) as endogenous control.
Western blots were performed as previously described (Cyr et al., 2014; Kulak et al., 2013). For immunoprecipitations anti-TFAP2A, anti-GFP antibody (Life Technologies) or IgG (#sc-2025, Santa Cruz Biotechnology) were cross-linked with Dynabeads protein A (Life Technologies). MCF7 protein was incubated with Dynabeads protein A-Abs complex, protein complexes were washed with DPBS (Gibco) with 0.01% Tween (Research Products International Corp.), and eluted with SDS loading buffer.
Cells were plated ([…]/10 cm2) and treated with 10 μM gingolic or anacardic acid (Sigma) for 2-4 days and collected for qPCR, Western blot and FACS analysis.
FACS analysis was performed as previously described (Roederer and Hardy, 2001).

Assay [1] concerns undifferentiated thyroid cell line 8505c. Kind of assay: CD44 Western blot in 8505c thyroid carcinoma. The format is cell-based. As to conditions: 96 h treatment, FIG. 19. On the procedure: FIG. 19: Western blot, CD44 downregulation, 8505c thyroid carcinoma was treated with ginkgolic and anacardic acids, 96 h.
Similar downregulation of stem cell marker CD44 was determined in pancreatic carcinoma Panc-1 cell line (FIG. 18) and undifferentiated thyroid cell line 8505c (FIG. 19) after 96 h treatment with SUMO inhibitors anacardic and ginkgolic acids. • Woodfield, G. W., Horan, A. D., Chen, Y. & Weigel, R. J. TFAP2C controls hormone response in breast cancer cells through multiple pathways of estrogen signaling. Cancer Res 67, 8439-8443 (2007). • Woodfield, G. W., Chen, Y., Bair, T. B., Domann, F. E. & Weigel, R. J. Identification of primary gene targets of TFAP2C in hormone responsive breast carcinoma cells. Genes Chromosomes Cancer 49, 948-962, doi:10.1002/gcc.20807 (2010). • Tan, S. K. et al. AP-2gamma regulates oestrogen receptor-mediated longrange chromatin interaction and gene transcription. Embo J 30, 2569-2581, doi:10.1038/emboj.2011.151 (2011). • Sorlie, T. et al. Gene expression patterns of breast carcinomas distinguish tumor subclasses with clinical implications. Proc Natl Acad Sci USA 98, 10869-10874. (2001). • Kao, J. et al. Molecular profiling of breast cancer cell lines defines relevant tumor models and provides a resource for cancer gene discovery. […]

Where [2] appears, read: sKD-C cells, compared to vehicle treatment, mRNA and protein (FIG. 5E), 10 μM, 2-4 days.

Regarding `CCCCCCCCCCCCCCCc1cccc(O)c1C(=O)O` [AA, Anacardic acid (C15:0)], in the assay with sKD-C cells (10 μM, 2-4 days), the “CD44+/CD24-/low population by FACS analysis” value is “significantly reduced” and the “CD44 expression by Western blot” value is on record as “inhibited”. In addition, the “ability to repress CD44 expression with knockdown of TFAP2A” value in the assay with sKD-C cells (sKD-C cells) is on record as “completely eliminated”. For the same compound, in assay [1], the “stem cell marker CD44 (Western blot)” value is listed as “downregulation”.

With `CCCCCC/C=C\CCCCCCCc1cccc(O)c1C(=O)O` [GA, (Z)-6-(Pentadec-8-enyl)-2-hydroxybenzoic acid], in the assay with sKD-C cells (10 μM, 2-4 days), the “CD44+/CD24-/low population by FACS analysis” value is “significantly reduced” and the “CD44 expression by Western blot” value is “inhibited”. For the same compound, the “ability to repress CD44 expression with knockdown of TFAP2A” value in the assay on sKD-C cells (sKD-C cells) is on record as “completely eliminated”. Further, the TFAP2C expression entry in the assay on sKD-C cells (sKD-C cells, compared to vehicle treatment, FIG. 5E) is “without altering”. The FREM2 expression result with sKD-C cells (sKD-C cells, compared to vehicle treatment, FIG. 5E, 10 μM, 2-4 days) is listed as “induced”. Besides, in the assay on sKD-C cells (setting [2]), the CD44 expression entry is given as “repressed” and the ERα expression entry is on record as “induced”. Further, the “stem cell marker CD44 (Western blot)” value in assay [1] is reported as “downregulation”.
